Reference: patent US12410160B2 (Gilead Sciences, Inc., priority 2021, dated 2025)

Biological target: human KHK-C (Homo sapiens (Human), UniProt P50053)
Assay: KHK Biochemical Assay (IC50), ADP-Glo, KHK-C
Conditions: not given
Description: (§1) The His-tagged fusion protein was expressed using BL21 (DE3) with IPTG induction and purified using Ni-NTA column followed by dialysis into final buffer containing 25 mM Tris-HCl pH 8.0, 250 mM NaCl.
(§2) KHK Biochemical Assay (IC50)
(§3) Compounds were tested for KHK enzyme inhibition in a high-throughput 384-well assay format using the ADP-Glo assay (Promega) in buffer consisting of 50 mM Hepes (pH 7.4), 140 mM KCl, 5 mM MgCl2 and 0.01% Triton-X. 0.2 nM. […] Compounds were serially diluted (1:3) in DMSO.
(§4) The compounds were pre-incubated with 5 μL of 2× final enzyme concentration for 30 minutes before adding 5 μL of 2× final concentration of ATP and fructose. The plates were incubated at room temperature for 4 hours before adding ADP-Glo reagent to quench the enzyme reaction, followed by incubation at room temperature for 1 hour. The ADP-Glo detection reagent was then added to the plates and luminescence was measured on the Envision plate reader after 1 hour.

human KHK-C, sequence (P50053 whole entry): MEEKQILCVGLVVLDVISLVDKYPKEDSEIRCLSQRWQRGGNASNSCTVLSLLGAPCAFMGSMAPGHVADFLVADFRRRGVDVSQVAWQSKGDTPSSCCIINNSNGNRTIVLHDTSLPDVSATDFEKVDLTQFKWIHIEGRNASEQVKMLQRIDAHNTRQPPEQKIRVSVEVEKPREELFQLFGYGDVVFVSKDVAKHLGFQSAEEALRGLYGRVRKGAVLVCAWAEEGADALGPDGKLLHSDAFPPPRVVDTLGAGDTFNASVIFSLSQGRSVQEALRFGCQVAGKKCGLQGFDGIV

Molecule	IC50 [nM]
C[C@H]1CCN1c1nc(N2CC3CC3C2)cc(C(F)(F)F)n1 (stereo partly drawn) [Reference Compound 1b, 3-(2-((S)-2-methylazetidin-1-yl)-6-(trifluoromethyl)pyrimidin-4-yl)-3-azabicyclo[3.1.0]hexane, reference compound]	13100

Same assay, conditions: ADP-Glo; average of at least two separate assays

Molecule	IC50 [nM]
C[C@H]1CCN1c1nc2c(c(-c3ccc4c(cnn4C(=O)CN)c3)n1)CCC2 [Example 237, (S)-2-amino-1-(5-(2-(2-methylazetidin-1-yl)-6,7-dihydro-5H-cyclopenta[d]pyrimidin-4-yl)-1H-indazol-1-yl)ethan-1-one]	26.7
C[C@H]1CCN1c1nc2c(c(-c3ccc4nn(C(=O)CN)cc4c3)n1)CCC2 [Example 238, (S)-2-amino-1-(5-(2-(2-methylazetidin-1-yl)-6,7-dihydro-5H-cyclopenta[d]pyrimidin-4-yl)-2H-indazol-2-yl)ethan-1-one]	68.3
C[C@H]1[C@H](O)CN1c1nc(-c2ccc3c(c2)CC(C)(C)C3NS(C)(=O)=O)c2c(n1)C(F)(F)CC2 (stereo partly drawn) [Example 816, N-[5-[7,7-difluoro-2-[(2S,3R)-3-hydroxy-2-methyl-azetidin-1-yl]-5,6-dihydrocyclopenta[d]pyrimidin-4-yl]-2,2-dimethyl-indan-1-yl]methanesulfonamide]	23.4
C[C@H]1[C@H](O)CN1c1nc(-c2ccc3c(c2)S(=N)(=O)CCO3)c2c(n1)C(F)(F)CC2 (stereo partly drawn) [Example 818, (2S,3R)-1-[7,7-difluoro-4-(4-imino-4-oxo-2,3-dihydro-1,4λ^6-benzoxathiin-6-yl)-5,6-dihydrocyclopenta[d]pyrimidin-2-yl]-2-methyl-azetidin-3-ol]	2.5

Same assay, conditions: average of at least two separate assays

Molecule	IC50 [nM]
2-(3-(7,7-difluoro-2-((2S,3R)-3-hydroxy-2-methylazetidin-1-yl)-6,7-dihydro-5H-cyclopenta[d]pyrimidin-4-yl)phenylsulfonimidoyl)acetonitrile [Example 628]	8.8
5-(7,7-difluoro-2-((2S,3R)-3-hydroxy-2-methylazetidin-1-yl)-6,7-dihydro-5H-cyclopenta[d]pyrimidin-4-yl)-2,3-dihydrospiro[indene-1,3′-[1,4]oxazepan]-5′-one [Example 552]	39.2
C[C@H]1[C@H](O)CN1c1nc(-c2ccc(OC(F)F)c([S@](C)(=N)=O)c2)c2c(n1)C(F)(F)CC2 (single isomer, unassigned) [Example 534]	32
COc1c(F)cc(-c2nc(N3C[C@@H](O)[C@@H]3C)nc3c2CCC3(F)F)cc1[S@@](C)(=N)=O (single isomer, unassigned) [Example 536]	6.1
COc1c(F)cc(-c2nc(N3C[C@@H](O)[C@@H]3C)nc3c2CCC3(F)F)cc1[S@](C)(=N)=O (single isomer, unassigned) [Example 537]	21.4
COc1ccc(-c2nc(N3C[C@@H](O)[C@@H]3C)nc3c2CCC3(F)F)cc1[S@](=N)(=O)C1CC1 (single isomer, unassigned) [Example 540]	13.5
CS(=O)(=O)N[C@H]1COc2cc(-c3nc(N4CC[C@H]4C(F)F)nc4c3CCC4(F)F)ccc21 (single isomer, unassigned) [Example 546]	23.9
C[C@H]1[C@H](O)CN1c1nc(-c2ccc3c(c2)CC[C@]32COCC(=O)N2)c2c(n1)C(F)(F)CC2 (single isomer, unassigned) [Example 550]	5
C[C@H]1[C@H](O)CN1c1nc(-c2ccc3c(c2)C(F)(F)C[C@H]3NS(C)(=O)=O)c2c(n1)C(F)(F)CC2 (single isomer, unassigned) [Example 635]	2.9
C[C@H]1[C@H](F)CN1c1nc(-c2ccc3c(c2)S(=O)(=O)C[C@H]3NS(C)(=O)=O)c2c(n1)C(F)(F)CC2 (single isomer, unassigned) [Example 680]	1.4
C[C@@H]1N(c2nc(-c3ccc4c(c3)S(=O)(=O)C[C@@H]4NS(C)(=O)=O)c3c(n2)C(F)(F)CC3)CC1(F)F (single isomer, unassigned) [Example 681]	0.5
C[C@@H]1N(c2nc(-c3ccc4c(c3)S(=O)(=O)C[C@H]4NS(C)(=O)=O)c3c(n2)C(F)(F)CC3)CC1(F)F (single isomer, unassigned) [Example 682]	4
C[C@H]1CCN1c1nc(-c2ccc([C@H](N)CS(C)(=O)=O)cc2)c2c(n1)C(F)(F)CC2 (single isomer, unassigned) [Example 775]	4.3
C[C@H]1CCN1c1nc(-c2ccc([C@@H](N)CS(C)(=O)=O)cc2)c2c(n1)C(F)(F)CC2 (single isomer, unassigned) [Example 776]	2.8
NC(=O)c1ccc(-c2nc(N3CC4(CCC4)C3)nc3c2CCC3)cc1 [Example 416, 4-(2-(2-azaspiro[3.3]heptan-2-yl)-6,7-dihydro-5H-cyclopenta[d]pyrimidin-4-yl)benzamide]	> 5000
NC(=O)c1ccc(-c2nc(N3CC4(COC4)C3)nc3c2CCC3)cc1 [Example 417, 4-(2-(2-oxa-6-azaspiro[3.3]heptan-6-yl)-6,7-dihydro-5H-cyclopenta[d]pyrimidin-4-yl)benzamide]	> 5000
C[C@H]1CCC(=O)N1c1nc2c(c(-c3ccc(C(N)=O)cc3)n1)CCC2 [Example 419, (S)-4-(2-(2-methyl-5-oxopyrrolidin-1-yl)-6,7-dihydro-5H-cyclopenta[d]pyrimidin-4-yl)benzamide]	> 5000
C[C@H]1[C@H](O)CN1c1nc2c(c(-c3ccc4cnc(N)cc4c3)n1)CCC2 [Example 448, (2S,3R)-1-[4-(3-amino-6-isoquinolyl)-6,7-dihydro-5H-cyclopenta[d]pyrimidin-2-yl]-2-methyl-azetidin-3-ol]	121
N#CC1CCN1c1nc2c(c(-c3ccc(C(N)=O)cc3)n1)CCC2 (stereo not drawn) [Example 458, 4-(2-(2-cyanoazetidin-1-yl)-6,7-dihydro-5H-cyclopenta[d]pyrimidin-4-yl)benzamide]	57.2
CS(=O)(=O)N[C@H]1COc2cc(-c3nc(N4C[C@@H](O)[C@@H]4CF)nc4c3CCC4(F)F)ccc21 [Example 484, N-((R)-6-(7,7-difluoro-2-((2R,3R)-2-(fluoromethyl)-3-hydroxyazetidin-1-yl)-6,7-dihydro-5H-cyclopenta[d]pyrimidin-4-yl)-2,3-dihydrobenzofuran-3-yl)methanesulfonamide]	1.2
C[C@H]1[C@H](O)CN1c1nc(-c2ccc3c(c2)CC[C@@]32NC(=O)NC2=O)c2c(n1)C(F)(F)CC2 [Example 485, (R)-5′-(7,7-difluoro-2-((2S,3R)-3-hydroxy-2-methylazetidin-1-yl)-6,7-dihydro-5H-cyclopenta[d]pyrimidin-4-yl)-2′,3′-dihydrospiro[imidazolidine-4,1′-indene]-2,5-dione]	22.6
COc1c(F)cc(-c2nc(N3C[C@@H](O)[C@@H]3C)nc3c2CCC3(F)F)cc1S(C)(=N)=O (stereo partly drawn) [Example 535, (5-(7,7-difluoro-2-((2S,3R)-3-hydroxy-2-methylazetidin-1-yl)-6,7-dihydro-5H-cyclopenta[d]pyrimidin-4-yl)-3-fluoro-2-methoxyphenyl)(imino)(methyl)-λ^6-sulfanone]	15.8
COc1ccc(-c2nc(N3C[C@@H](O)[C@@H]3C)nc3c2CCC3(F)F)cc1S(=N)(=O)C1CC1 (stereo partly drawn) [Example 538, cyclopropyl(5-(7,7-difluoro-2-((2S,3R)-3-hydroxy-2-methylazetidin-1-yl)-6,7-dihydro-5H-cyclopenta[d]pyrimidin-4-yl)-2-methoxyphenyl)(imino)-λ^6-sulfanone]	2.3
CS(=O)(=O)N[C@H]1COc2cc(-c3nc(N4CCC4C(F)F)nc4c3CCC4(F)F)ccc21 (stereo partly drawn) [Example 544, N-((3R)-6-(2-(2-(difluoromethyl)azetidin-1-yl)-7,7-difluoro-6,7-dihydro-5H-cyclopenta[d]pyrimidin-4-yl)-2,3-dihydrobenzofuran-3-yl)methanesulfonamide]	1.1
C[C@H]1CCN1c1nc(-c2ccc3c(c2)C(NS(C)(=O)=O)CC3)c2c(n1)C(F)(F)CC2 (stereo partly drawn) [Example 607]	0.9
C[C@H]1[C@H](O)CN1c1nc(-c2ccc3c(c2)C(F)(F)CC3NS(C)(=O)=O)c2c(n1)C(F)(F)CC2 (stereo partly drawn) [Example 633, N-(5-(7,7-difluoro-2-((2S,3R)-3-hydroxy-2-methylazetidin-1-yl)-6,7-dihydro-5H-cyclopenta[d]pyrimidin-4-yl)-3,3-difluoro-2,3-dihydro-1H-inden-1-yl)methanesulfonamide]	2
NC1(c2ccc(-c3nc(N4C[C@@H](O)[C@@H]4CF)nc4c3CCC4(F)F)cc2)COC1 [Example 677, (2R,3R)-1-[4-[4-(3-aminooxetan-3-yl)phenyl]-7,7-difluoro-5,6-dihydroeyelopenta[d]pyrimidin-2-yl]-2-(fluoromethyl)azetidin-3-ol]	4.8
C[C@H]1CCN1c1nc(-c2cccc(NS(C)(=N)=O)c2)c2c(n1)C(F)(F)CC2 (stereo partly drawn) [Example 684, 4-[3-[(amino-methyl-oxo-λ^6-sulfanylidene)amino]phenyl]-7,7-difluoro-2-[(2S)-2-methylazetidin-1-yl]-5,6-dihydrocyclopenta[d]pyrimidine]	3.8
C[C@H]1[C@H](O)CN1c1nc(-c2cc3c(c(S(C)(=N)=O)c2)OCC3)c2c(n1)C(F)(F)CC2 (stereo partly drawn) [Example 716, (5-(7,7-difluoro-2-((2S,3R)-3-hydroxy-2-methylazetidin-1-yl)-6,7-dihydro-5H-cyclopenta[d]pyrimidin-4-yl)-2,3-dihydrobenzofuran-7-yl)(imino)(methyl)-λ^6-sulfanone]	3.8
C[C@H]1CCN1c1nc2c(c(-c3ccc(Cl)c(S(C)(=N)=O)c3)n1)CCC2 (stereo partly drawn) [Example 727]	> 500

Biological target: human KHK-A (Homo sapiens (Human), UniProt P50053)
Sequence (P50053 other isoform, or with tags, fused parts or gaps): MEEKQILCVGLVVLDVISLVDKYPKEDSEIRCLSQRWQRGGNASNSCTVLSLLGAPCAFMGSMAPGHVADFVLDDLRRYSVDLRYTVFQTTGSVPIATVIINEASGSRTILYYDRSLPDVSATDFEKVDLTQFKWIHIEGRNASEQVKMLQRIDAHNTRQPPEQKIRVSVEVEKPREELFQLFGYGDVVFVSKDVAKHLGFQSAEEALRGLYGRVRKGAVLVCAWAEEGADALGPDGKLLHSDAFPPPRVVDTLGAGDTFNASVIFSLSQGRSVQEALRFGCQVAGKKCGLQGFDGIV
Assay: KHK Biochemical Assay (IC50), ADP-Glo, KHK-A
Conditions: average of at least two separate assays
Description: as §1, §2, §3, §4

Molecule	IC50 [nM]
2-(3-(7,7-difluoro-2-((2S,3R)-3-hydroxy-2-methylazetidin-1-yl)-6,7-dihydro-5H-cyclopenta[d]pyrimidin-4-yl)phenylsulfonimidoyl)acetonitrile [Example 628]	10.3
